# Measurements published in patent US9357778B2, “N-acyl-2-(cyclo)alkypyrrolidines and piperidines useful as fungicides” (BAYER CROPSCIENCE AG, priority 2012, dated 2016).
# Marks after values point to notes of the source that are not given here.
# Columns and labels:
# [1] = tested on: Leptosphaeria nodorum; test: In vivo preventive test on Leptosphaeria nodorum (wheat); settings: evaluated 8 days after inoculation
# Procedure: In Vivo Preventive Test on Leptosphaeria nodorum (Wheat) • Solvent: 49 parts by weight of N,N-dimethylacetamide • Emulsifier: 1 part by weight of alkylaryl polyglycol ether To produce a suitable preparation of active compound, 1 part by weight of active compound or active compound combination is mixed with the stated amounts of solvent and emulsifier, and the concentrate is diluted with water to the desired concentration. To test for preventive activity, young plants are sprayed with the preparation of active compound or active compound combination at the stated rate of application. After the spray coating has been dried, the plants are sprayed with a spore suspension of Leptosphaeria nodorum. The plants remain for 48 hours in an incubation cabinet at approximately 20° C. and a relative atmospheric humidity of approximately 100%. The plants are placed in the greenhouse at a temperature of approximately 22° C. and a relative atmospheric humidity of approximately 80%. The test is evaluated 8 days after the inoculation. 0% means an efficacy which corresponds to that of the untreated control, while an efficacy of 100% means that no disease is observed.
# [2] = tested on: Tomato; test: Plant damages observed in the Alternaria solani preventive test (tomato); format: in vivo; settings: footnote to table B2
# Procedure: In Vivo Preventive Test on Alternaria solani (Tomato) To test for preventive activity, young plants are sprayed with the preparation of active compound at the stated rate of application. One day after this treatment, the plants are inoculated with an aqueous spore suspension of Alternaria solani. The plants remain for one day in an incubation cabinet at approximately 22° C. and a relative atmospheric humidity of 100%. Then the plants are placed in an incubation cabinet at approximately 20° C. and a relative atmospheric humidity of 96%. Under the same conditions, high (at least 85%) to total protection is observed at a dose of 500 and 100 ppm of active ingredient with compound of example 12, 20 and 25, whereas poor (less than 20%) protection to 100% of plant damages is observed with compound 1.006, compound CMP1 (chloro analogue of compound 1.006) and compound CMP2 (fluoro analogue of compound 1.006) claimed in patent application WO-2009/153191 as in table B2: […]
# [3] = tested on: Alternaria solani; test: In vivo preventive test on Alternaria solani (tomato); settings: evaluated 7 days after inoculation
# Procedure: In Vivo Preventive Test on Alternaria solani (Tomato) • Solvent: 49 parts by weight of N,N-dimethylformamide • Emulsifier: 1 part by weight of alkylarylpolyglycolether To produce a suitable preparation of active compound, 1 part by weight of active compound is mixed with the stated amounts of solvent and emulsifier, and the concentrate is diluted with water to the desired concentration. To test for preventive activity, young plants are sprayed with the preparation of active compound at the stated rate of application. One day after this treatment, the plants are inoculated with an aqueous spore suspension of Alternaria solani. The plants remain for one day in an incubation cabinet at approximately 22° C. and a relative atmospheric humidity of 100%. Then the plants are placed in an incubation cabinet at approximately 20° C. and a relative atmospheric humidity of 96%. The test is evaluated 7 days after the inoculation. 0% means an efficacy which corresponds to that of the untreated control while an efficacy of 100% means that no disease is observed.
# [4] = tested on: Sphaerotheca fuliginea; test: In vivo preventive test on Sphaerotheca fuliginea (cucumber); settings: 500 ppm of active ingredient, evaluated 7 days after inoculation
# Procedure: In Vivo Preventive Test on Sphaerotheca Fulicinea (Cucumber) • Solvent: 49 parts by weight of N,N-dimethylformamide • Emulsifier: 1 part by weight of alkylarylpolyglycolether To produce a suitable preparation of active compound, 1 part by weight of active compound is mixed with the stated amounts of solvent and emulsifier, and the concentrate is diluted with water to the desired concentration. To test for preventive activity, young plants are sprayed with the preparation of active compound at the stated rate of application. One day after this treatment, the plants are inoculated with an aqueous spore suspension of Sphaerotheca fuliginea. Then the plants are placed in a greenhouse at approximately 23° C. and a relative atmospheric humidity of approximately 70%. The test is evaluated 7 days after the inoculation. 0% means an efficacy which corresponds to that of the untreated control, while an efficacy of 100% means that no disease is observed.
# [5] = tested on: Pyrenophora teres; test: In vivo preventive test on Pyrenophora teres (barley); settings: 500 ppm of active ingredient, evaluated 7-9 days after inoculation
# Procedure: In Vivo Preventive Test on Pyrenophora teres (Barley) • Solvent: 49 parts by weight of N,N-dimethylformamide • Emulsifier: 1 part by weight of alkylaryl polyglycol ether To produce a suitable preparation of active compound, 1 part by weight of active compound is mixed with the stated amounts of solvent and emulsifier, and the concentrate is diluted with water to the desired concentration. To test for preventive activity, young plants are sprayed with the preparation of active compound at the stated rate of application. One day after this treatment, the plants are inoculated with an aqueous spore suspension of Pyrenophora teres. The plants remain for 48 hours in an incubation cabinet at 22° C. and a relative atmospheric humidity of 100%. Then the plants are placed in a greenhouse at a temperature of approximately 20° C. and a relative atmospheric humidity of approximately 80%. The test is evaluated 7-9 days after the inoculation. 0% means an efficacy which corresponds to that of the untreated control while an efficacy of 100% means that no disease is observed.
# [6] = log P by HPLC on reversed-phase column (C 18), EEC Directive 79/831 Annex V.A8; format: physicochemical; settings: 40° C., 0.1% aqueous formic acid and acetonitrile
# Procedure: In table 1, the log P values were determined in accordance with EEC Directive 79/831 Annex V.A8 by HPLC (High Performance Liquid Chromatography) on a reversed-phase column (C 18), using the method described below: Temperature: 40° C.; Mobile phases: 0.1% aqueous formic acid and acetonitrile; linear gradient from 10% acetonitrile to 90% acetonitrile. Calibration was carried out using unbranched alkan-2-ones (comprising 3 to 16 carbon atoms) with known log P values (determination of the log P values by the retention times using linear interpolation between two successive alkanones). lambda-max-values were determined using UV-spectra from 200 nm to 400 nm and the peak values of the chromatographic signals.
SMILES,Efficacy ([1]; 100 ppm of active ingredient) [%],Efficacy ([1]; 500 ppm of active ingredient) [%],plant damages ([2]; 100 ppm),plant damages ([2]; 500 ppm),Efficacy ([3]; 100 ppm of active ingredient),Efficacy [4] [%],Efficacy [5] [%],logP [6],Efficacy ([3]; 500 ppm of active ingredient) [%]
"Cn1nc(C(F)F)c(C(=O)N2CCC[C@H]2COc2c(Cl)cc(Cl)cc2Cl)c1Cl [CMP1, [5-chloro-3-(difluoromethyl)-1-methyl-1H-pyrazol-4-yl]{(2S)-2-[(2,4,6-trichlorophenoxy)methyl]pyrrolidin-1-yl}methanone, reference compound]",0,0,^(a)together with 100% of plant damages,^(a)together with 100% of plant damages,,,,,
"Cn1nc(C(F)F)c(C(=O)N2CCC[C@H]2COc2c(Cl)cc(Cl)cc2Cl)c1F [CMP2, [3-(difluoromethyl)-5-fluoro-1-methyl-1H-pyrazol-4-yl]{(2S)-2-[(2,4,6-trichlorophenoxy)methyl]pyrrolidin-1-yl}methanone]",,,^(a)together with 100% of plant damages,^(a)together with 100% of plant damages,,,,,
"Cn1cc(C(=O)N2CCC[C@H]2COc2c(Cl)cc(Cl)cc2Cl)c(C(F)F)n1 [Compound 1.006, [3-(difluoromethyl)-1-methyl-1H-pyrazol-4-yl]{(2S)-2-[(2,4,6-trichlorophenoxy)methyl]pyrrolidin-1-yl}methanone, reference compound]",40,60,,^(a)together with 100% of plant damages,20 ^(b) %,,,,
CCCCCCC1CCCN1C(=O)c1c(C(F)F)nn(C)c1F (stereo not shown) [Example 8],90,95,,,,98,100,3.80,
Cn1nc(C(F)F)c(C(=O)N2CCCC2C2CCCCC2)c1F (stereo not shown) [Example 11],80,95,,,,95,100,3.31,94
Cn1nc(C(F)F)c(C(=O)N2CCCC2CC2CCCCC2)c1F (stereo not shown) [Example 17],80,95,,,,100,100,3.78,94
Cn1nc(C(F)F)c(C(=O)N2CCCC2CC2CC3CCC2C3)c1F (stereo not shown) [Example 48],,90,,,,100,100,3.89,100
Cn1cc(C(=O)N2CCCC2CC2CC3CCC2C3)c(C(F)F)n1 (stereo not shown) [Example 49],,70,,,,90,100,3.44,94
